Counter-ions that a name gives are not always drawn. Like-named read-outs stand apart in the source and are kept apart here.

Here are results for 42 compounds from patent US8513232B2, “Substituted spirocyclic piperidine derivatives as histamine-3 (H3) receptor ligands” (Cephalon, Inc., priority 2008, dated 2013).

For data set [1], the target named is T1, rat histamine H3 receptor (Rattus norvegicus, UniProt Q9QYN8).
T1 construct: encoding the entire 445-amino-acid rat histamine H3 receptor; expressed in transfected cells; membrane preparation
The data set is described as follows: Rat H3 radioligand binding ([3H]-N-alpha-methylhistamine, SPA). From the text:
Cell line development and membrane preparation. The rat H3 receptor cDNA was PCR amplified from reverse-transcribed RNA pooled from rat thalamus, hypothalamus, striatum and prefrontal cortex with a sequence corresponding to by #338-1672 of Genbank file #NM_053506, encoding the entire 445-amino-acid rat histamine H3 receptor. This was engineered into the pIRES-neo3 mammalian expression vector, which was stably transfected into the CHO-A3 cell line (Euroscreen, Belgium), followed by clonal selection by limiting dilution. Cells were harvested and cell pellets were frozen (−80° C.). Cell pellets were resuspended in 5 mM Tris-HCl, pH 7.5 with […] and a cocktail of protease inhibitors (Complete Protease Inhibitior Tablets, Roche Diagnostics). Cells were disrupted using a polytron cell homogenizer and the suspension was centrifuged at 1000×g for 10 minutes at 4° C. The pellet was discarded and the supernatant centrifuged at 40,000×g for 30 min at 4° C. This membrane pellet was washed in membrane buffer containing 50 mM Tris-HCl, pH 7.5 with 0.6 mM EDTA, 5 mM MgCl2 and protease inhibitors, recentrifuged as above and the final pellet resuspended in membrane buffer plus 250 mM sucrose and frozen at −80° C.
(§1) Radioligand Binding. Membranes were resuspended in 50 mM Tris HCl (pH 7.4), 5 mM MgCl2, 0.1% BSA. The membrane suspensions (10 μg protein per well) were incubated in a 96 well microtiter plate with [^3H]-N-alpha-methylhistamine (approximately 1 nM final concentration), test compounds at various concentrations (0.01 nM-30 μM) and scintillation proximity beads (Perkin Elmer, FlashBlueGPCR Scintillating Beads) in a final volume of 80 μl for 4 hours at room temperature, protected from light. Non-specific binding was determined in the presence of 10 μM clobenpropit. Radioligand bound to receptor, and therefore in proximity to the scintillation beads, was measured using a MicroBeta scintillation counter.

The target in another data set is T2, human H3 receptor (Homo sapiens, UniProt Q9Y5N1).
T2 construct: expressed in transfected cells
Nature of the data set: Human H3 radioligand binding ([3H]-N-alpha-methylhistamine, SPA). As for the experimental part: Methods: CHO cells stably expressing the human H3 receptor (GenBank: NM_007232) were harvested and cell pellets were frozen (−80° C.). Cell pellets were resuspended in 5 mM Tris-HCl, pH 7.5 with […] and a cocktail of protease inhibitors (Complete Protease Inhibitior Tablets, Roche Diagnostics). Cells were disrupted using a polytron cell homogenizer and the suspension was centrifuged at 1000×g for 10 minutes at 4° C. The pellet was discarded and the supernatant centrifuged at 40,000×g for 30 min at 4° C. This membrane pellet was washed in membrane buffer containing 50 mM Tris-HCl, pH 7.5 with 0.6 mM EDTA, 5 mM MgCl2 and protease inhibitors, recentrifuged as above and the final pellet resuspended in membrane buffer plus 250 mM sucrose and frozen at −80° C.
as §1

Where [2] appears, read: Rat H3 binding, Table B, Examples 136-362, read-out: rat H3 binding Ki.
Setting [3] is: Human H3 binding, Table B, Examples 136-362, read-out: hum H3 binding Ki.
The mark [4] stands for this setting: rat H3 binding, Table D, read-out: Rat H3 Ki.
Setting [5] is: human H3 binding, Table D, read-out: Human H3 Ki.
[6] abbreviates: Table A, rat H3 binding, read-out: Rat Ki.
Where [7] appears, read: Table A, human H3 binding, read-out: Human Ki.

T2 sequence (Q9Y5N1 whole entry): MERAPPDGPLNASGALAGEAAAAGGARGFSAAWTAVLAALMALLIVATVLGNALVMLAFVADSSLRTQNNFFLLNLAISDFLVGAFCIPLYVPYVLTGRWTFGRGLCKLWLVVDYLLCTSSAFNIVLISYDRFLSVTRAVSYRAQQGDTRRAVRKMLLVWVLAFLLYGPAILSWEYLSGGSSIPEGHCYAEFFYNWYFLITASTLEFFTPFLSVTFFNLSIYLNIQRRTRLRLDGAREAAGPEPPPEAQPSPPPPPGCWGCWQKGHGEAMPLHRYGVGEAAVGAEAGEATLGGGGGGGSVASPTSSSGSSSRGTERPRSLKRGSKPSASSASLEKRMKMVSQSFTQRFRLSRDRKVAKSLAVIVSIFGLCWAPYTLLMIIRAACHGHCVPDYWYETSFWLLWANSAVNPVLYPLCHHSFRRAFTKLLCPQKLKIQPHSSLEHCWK
T1 sequence (Q9QYN8 whole entry): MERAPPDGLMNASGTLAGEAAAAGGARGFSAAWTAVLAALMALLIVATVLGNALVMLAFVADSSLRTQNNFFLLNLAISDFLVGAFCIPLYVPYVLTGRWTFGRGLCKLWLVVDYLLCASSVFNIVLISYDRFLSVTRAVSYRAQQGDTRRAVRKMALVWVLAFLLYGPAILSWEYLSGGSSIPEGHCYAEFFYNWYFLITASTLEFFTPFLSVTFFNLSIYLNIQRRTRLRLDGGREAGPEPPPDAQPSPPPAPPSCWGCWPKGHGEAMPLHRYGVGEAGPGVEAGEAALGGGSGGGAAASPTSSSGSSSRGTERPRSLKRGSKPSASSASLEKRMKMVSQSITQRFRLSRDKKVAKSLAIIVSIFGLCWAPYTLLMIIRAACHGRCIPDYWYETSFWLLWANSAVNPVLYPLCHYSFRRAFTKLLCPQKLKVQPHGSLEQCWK

In general, Ki refers to the equilibrium dissociation constant of an inhibitor or competing ligand from its target. As a reminder, the melting point is the temperature of the solid-liquid transition. The compound `CC(=O)N[C@@H]1CCN(c2ccc3c(c2)COC2(CCN(C4CCC4)CC2)O3)C1` [Example 343] showed a melting point of 77.9 to 79.9 °C. In data set [1] (setting [2]), the Ki is less than 0.2 µM. For the same compound, the Ki on human H3 receptor (setting [3]) was less than 0.2 µM.
Compound `CCOC(=O)C1CC=C(c2ccc3c(c2)CCC2(CCN(C4CCC4)CC2)O3)CC1` (centres unmarked) [Example 455] registered a melting point of 137 to 139 °C. Also, in data set [1] (read-out: Rat H3 kI), the Ki is less than 0.2 µM. In addition, at human H3 receptor (read-out: Human H3 Ki), the Ki was less than 0.2 µM.
On to `O=c1ccc(Oc2ccc3c(c2)CCC2(CCN(C4CCC4)CC2)O3)c[nH]1` [Example 485], for which the melting point was in the range of 284 to 286 °C. In data set [1] (read-out: Rat H3 kI), the Ki is less than 0.2 µM. At human H3 receptor (read-out: Human H3 Ki), the Ki is less than 0.2 µM.
Turning to `CCS(=O)(=O)C1CCN(c2ccc3c(c2)COC2(CCN(C4CCC4)CC2)O3)CC1` [Example 648], the melting point fell in the range of 147.7 to 149.8 °C. In data set [1] (setting [4]), the Ki is less than 0.2 µM. Moreover, the Ki at human H3 receptor (setting [5]) was less than 0.2 µM.
Compound `O=C(O)CCc1ccc2c(c1)COC1(CCN(C3CCC3)CC1)O2` [Example 637] came in with a melting point of 235 to 237 °C. Besides, the Ki on human H3 receptor (setting [5]) lay in the range of 0.2 to 1 µM.
As to `CC(C)CN1CC(c2ccc3c(c2)COC2(CCN(C4CCC4)CC2)O3)CCC1=O` (centres unmarked) (as salt: HCl) [Example 564], the melting point lay in the range of 98 to 103 °C.
With `O=c1ccc(-c2ccc3c(c2)COC2(CCN(C4CC(CO)C4)CC2)O3)c[nH]1` (centres unmarked) [Example 721], the melting point was 228 to 230 °C. Also, on human H3 receptor (setting [5]), the Ki is greater than 1 µM.
Turning to `O=C(c1ccc(-c2ccc3c(c2)OC2(CCN(C4CCC4)CC2)O3)cc1)N1CCOCC1` [Example 89], the Ki (in data set [1] (setting [6]); on human H3 receptor (setting [7])) was less than 0.2 µM in each case.
For `O=S(=O)(c1ccc(-c2ccc3c(c2)CCC2(CCN(C4CCC4)CC2)O3)cc1)N1CCCC1` [Example 103], the Ki (in data set [1] (setting [6]); on human H3 receptor (setting [7])) was less than 0.2 µM each time.
Regarding `COc1ncc(-c2ccc3c(c2)COC2(CCN(C4CCC4)CC2)O3)cn1` [Example 23], the Ki (in data set [1] (setting [6]); at human H3 receptor (setting [7])) was less than 0.2 µM in each case.
In turn, `c1cc2c(cc1OC1CCNCC1)CCC1(CCN(C3CCC3)CC1)O2` (as salt: HCl) [Example 425] registered a melting point greater than 320 °C.
For `O=C(NC1CC1)c1ccc(-c2ccc3c(c2)CCC2(CCN(C4CCC4)CC2)O3)cc1` [Example 109], the Ki (in data set [1] (setting [6]); on human H3 receptor (setting [7])) was less than 0.2 µM in each case.
Take `Cc1cc(-c2ccc3c(c2)CCC2(CCN(C4CCC4)CC2)O3)ccc1C(=O)O` [Example 327]: the Ki in data set [1] (setting [2]) was 0.2 to 1 µM; at human H3 receptor (setting [3]), less than 0.2 µM.
As to `NC(=O)c1ccc(-c2ccc3c(c2)CCC2(CCN(C4CCC4)CC2)O3)cc1` [Example 113], the Ki (in data set [1] (setting [6]); at human H3 receptor (setting [7])) was less than 0.2 µM throughout.
On to `CCOc1ccc(-c2ccc3c(c2)COC2(CCN(C4CCC4)CC2)O3)cn1` [Example 11], for which the Ki (in data set [1] (setting [6]); on human H3 receptor (setting [7])) was less than 0.2 µM in each case.
As to `O=C(c1cccc(-c2ccc3c(c2)COC2(CCN(C4CCC4)CC2)O3)c1)N1CCCCC1` [Example 53], the Ki (in data set [1] (setting [6]); on human H3 receptor (setting [7])) was less than 0.2 µM each time.
For the compound `c1cc2c(cc1OCC1CCCO1)CCC1(CCN(C3CCC3)CC1)O2` (centres unmarked) [Example 449], the Ki (in data set [1] (read-out: Rat H3 kI); on human H3 receptor (read-out: Human H3 Ki)) was less than 0.2 µM throughout.
Turning to `O=C(NC1CC1)c1ccc(-c2ccc3c(c2)COC2(CCN(C4CCC4)CC2)O3)cc1` [Example 14], the Ki (in data set [1] (setting [6]); at human H3 receptor (setting [7])) was less than 0.2 µM throughout.
`N#Cc1ncc(-c2ccc3c(c2)COC2(CCN(C4CCC4)CC2)O3)s1` [Example 75]: the Ki (in data set [1] (setting [6]); at human H3 receptor (setting [7])) was less than 0.2 µM each time.
In the case of `CS(=O)(=O)c1ccc(-c2ccc3c(c2)COC2(CCN(C4CCC4)CC2)O3)cc1` [Example 21], the Ki (in data set [1] (setting [6]); at human H3 receptor (setting [7])) was less than 0.2 µM each time.
`O=S(=O)(c1ccc(-c2ccc3c(c2)COC2(CCN(C4CCC4)CC2)O3)c(F)c1)N1CCOCC1` [Example 65]: the inhibitory constant (Ki) (in data set [1] (setting [6]); on human H3 receptor (setting [7])) was less than 0.2 µM throughout.
As for `NC(=O)c1c(F)cc(-c2ccc3c(c2)CCC2(CCN(C4CCC4)CC2)O3)cc1F` [Example 340], the Ki (in data set [1] (setting [2]); at human H3 receptor (setting [3])) was less than 0.2 µM throughout.
For `COC1(c2ccc3c(c2)COC2(CCN(C4CCC4)CC2)O3)CC(C(=O)N2CCCC2)C1` (centres unmarked) [Example 540], the Ki (in data set [1] (read-out: Rat H3 kI); at human H3 receptor (read-out: Human H3 Ki)) was less than 0.2 µM each time.
For `c1cc2c(cc1N1CCOCC1)COC1(CCN(C3CCC3)CC1)O2` [Example 214], the Ki (in data set [1] (setting [2]); on human H3 receptor (setting [3])) was less than 0.2 µM each time.
With `c1ccc(Oc2ccc3c(c2)COC2(CCN(C4CCC4)CC2)O3)cc1` (as salt: HCl) [Example 131], the melting point fell in the range of 240 to 245 °C.
For the compound `CC(C)Cn1cc(-c2ccc3c(c2)COC2(CCN(C4CCC4)CC2)O3)ccc1=O` (as salt: HCl) [Example 562], the melting point was in the range of 182 to 190 °C.
Regarding `O=C(c1ccc(-c2ccc3c(c2)CCC2(CCN(C4CCC4)CC2)O3)cc1)N1CCOCC1` [Example 99], the Ki (in data set [1] (setting [6]); at human H3 receptor (setting [7])) was less than 0.2 µM throughout.
With `c1ccc(Oc2ccc3c(c2)COC2(CCN(C4CCC4)CC2)O3)cc1` [Example 131], the figures for the Ki (in data set [1] (setting [6]); on human H3 receptor (setting [7])) were less than 0.2 µM and 0.2 to 1 µM, respectively.
The matching figures for `CNC(=O)c1ccc(-c2ccc3c(c2)CCC2(CCN(C4CCC4)CC2)O3)cc1F` [Example 115]: less than 0.2 µM and less than 0.2 µM.
Consider `Cc1nc(C)c(-c2ccc3c(c2)COC2(CCN(C4CCC4)CC2)O3)s1` [Example 70], for which the Ki (in data set [1] (setting [6]); on human H3 receptor (setting [7])) was less than 0.2 µM throughout.
As for `c1ncc(-c2ccc3c(c2)CCC2(CCN(C4CCC4)CC2)O3)cn1` [Example 107], the Ki (in data set [1] (setting [6]); on human H3 receptor (setting [7])) was less than 0.2 µM in each case.
Take `OCc1ccc(-c2ccc3c(c2)CCC2(CCN(C4CCC4)CC2)O3)cc1` [Example 117]: the Ki (in data set [1] (setting [6]); on human H3 receptor (setting [7])) was less than 0.2 µM throughout.
On to `O=C(c1ccc(-c2ccc3c(c2)COC2(CCN(C4CCC4)CC2)O3)cc1)N1CCCC1` [Example 8], for which the Ki (in data set [1] (setting [6]); on human H3 receptor (setting [7])) was less than 0.2 µM in each case.
As for `CN(C)c1ncc(-c2ccc3c(c2)CCC2(CCN(C4CCC4)CC2)O3)cn1` [Example 108], the Ki (in data set [1] (setting [6]); on human H3 receptor (setting [7])) was less than 0.2 µM throughout.
`c1cnc(COc2ccc3c(c2)CCC2(CCN(C4CCC4)CC2)O3)nc1` [Example 317]: the Ki (in data set [1] (setting [2]); at human H3 receptor (setting [3])) was less than 0.2 µM each time.
As to `c1cc2c(cc1OC1CCSC1)CCC1(CCN(C3CCC3)CC1)O2` (centres unmarked) [Example 484], the Ki (in data set [1] (read-out: Rat H3 kI); on human H3 receptor (read-out: Human H3 Ki)) was less than 0.2 µM throughout.
Regarding `Cc1nc(C)c(-c2ccc3c(c2)COC2(CCN(C4CCC4)CC2)O3)s1` (as salt: HCl) [Example 70], the melting point was in the range of 225 to 227 °C.
With `FC(F)(F)Oc1ccc(-c2ccc3c(c2)CCC2(CCN(C4CCC4)CC2)O3)cc1` [Example 105], the Ki is 0.2 to 1 µM in data set [1] (setting [6]) and less than 0.2 µM on human H3 receptor (setting [7]).
The matching figures for `c1cc2c(cc1-c1ccc3c(c1)COC1(CCN(C4CCC4)CC1)O3)CCO2` [Example 2]: less than 0.2 µM and less than 0.2 µM.
As to `COC1(c2ccc3c(c2)COC2(CCN(C4CCC4)CC2)O3)CCC(C(F)(F)F)CC1` (centres unmarked) [Example 568], the Ki (in data set [1] (read-out: Rat H3 kI); at human H3 receptor (read-out: Human H3 Ki)) was less than 0.2 µM each time.
For the compound `c1csc(Cc2ccc3c(c2)COC2(CCN(C4CCC4)CC2)O3)n1` [Example 696], the Ki (in data set [1] (setting [4]); on human H3 receptor (setting [5])) was less than 0.2 µM in each case.
In the case of `c1cc2c(cc1OC[C@H]1CCCO1)CCC1(CCN(C3CCC3)CC1)O2` [Example 464], the Ki (in data set [1] (read-out: Rat H3 kI); on human H3 receptor (read-out: Human H3 Ki)) was less than 0.2 µM throughout.
